Legend:
Xanthine oxidase (XOD) [1] = biological target: T1, Xanthine oxidase (XOD); test: UV assay of uric acid formation at […] nm, test method A (inhibitor preincubated with enzyme, started by xanthine); type: biochemical; conditions: xanthine substrate, sodium pyrophosphate buffer pH 7.5, 37 °C, other methods (B; C, inhibitor added to the running reaction with superoxide) also printed in the row, read-out: IC50 ^[a]/μmol L^-1
T1 construct: gene XDH; described in the introduction as a 290 kDa homodimer of mammals; the high specific activity could also fit a microbial enzyme

Xanthine oxidase (XOD) [2] = biological target: T1, Xanthine oxidase (XOD); test: UV assay of uric acid formation at […] nm, test method C (inhibitor added to running reaction after […] min, superoxide present); type: biochemical; conditions: xanthine substrate, sodium pyrophosphate buffer pH 7.5, 37 °C, unreliable: compound may be oxidised to myricetin by superoxide, no IC50 reached in test methods A and B

`O=c1c(O)c(-c2cc(O)c(O)c(O)c2)oc2cc(O)cc(O)c12` [Myricetin] showed an IC50 (Xanthine oxidase (XOD) [1]) of 5 µM.
In the case of `O=c1cc(-c2ccc(O)c(O)c2)oc2cc(O)cc(O)c12` [Luteolin], the IC50 (Xanthine oxidase (XOD) [1]) is reported as 4.34 µM.
In the case of `O=C1c2c(O)cc(O)cc2O[C@H](c2cc(O)c(O)c(O)c2)[C@H]1O` [Dihydromyricetin], the “IC50 ^[c]/μmol L^-1” value (Xanthine oxidase (XOD) [2]) is reported as 20.96 µM.
